According to article PMC11864979, “First-in-class ultralong-target-residence-time p38α inhibitors as a mitosis-targeted therapy for colorectal cancer” (Nature Cancer, 2025):
Read-outs that look alike come from different tables or passages of the source.

Key:
Assay in all cases: selectivity profiling in a panel of 340 wild-type kinases (Reaction Biology Europe)
Type in all cases: binding
340 wild-type kinases [1] = biological target: T1, 340 wild-type kinases (Homo sapiens, UniProt Q9UK32)
T1 construct: purchased Reaction Biology Europe

340 wild-type kinases [2] = biological target: T2, 340 wild-type kinases (Homo sapiens, UniProt P00533)
T2 construct: purchased Reaction Biology Europe

340 wild-type kinases [3] = biological target: T3, 340 wild-type kinases (Homo sapiens, UniProt O60285)
T3 construct: purchased Reaction Biology Europe
T3 sequence (O60285 1-661): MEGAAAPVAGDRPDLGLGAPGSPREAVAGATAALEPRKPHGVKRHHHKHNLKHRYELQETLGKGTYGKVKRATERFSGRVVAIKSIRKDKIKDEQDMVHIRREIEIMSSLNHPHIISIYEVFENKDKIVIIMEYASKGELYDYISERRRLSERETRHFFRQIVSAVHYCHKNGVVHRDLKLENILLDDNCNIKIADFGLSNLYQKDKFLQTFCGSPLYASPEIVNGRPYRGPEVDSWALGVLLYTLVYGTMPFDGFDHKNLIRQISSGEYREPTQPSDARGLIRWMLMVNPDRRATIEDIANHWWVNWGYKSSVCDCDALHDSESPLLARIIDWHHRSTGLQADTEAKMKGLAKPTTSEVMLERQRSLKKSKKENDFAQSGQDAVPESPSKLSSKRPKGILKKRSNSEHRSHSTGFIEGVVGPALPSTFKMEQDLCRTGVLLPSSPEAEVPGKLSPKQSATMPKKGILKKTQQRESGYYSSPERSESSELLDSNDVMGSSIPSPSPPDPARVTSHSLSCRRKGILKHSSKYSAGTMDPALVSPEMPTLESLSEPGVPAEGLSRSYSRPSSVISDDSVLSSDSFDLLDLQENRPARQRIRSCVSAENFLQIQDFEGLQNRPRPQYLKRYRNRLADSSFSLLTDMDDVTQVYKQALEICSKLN

340 wild-type kinases [4] = biological target: T4, 340 wild-type kinases (Homo sapiens, UniProt Q16566)
T4 construct: purchased Reaction Biology Europe
T4 sequence (Q16566 1-473): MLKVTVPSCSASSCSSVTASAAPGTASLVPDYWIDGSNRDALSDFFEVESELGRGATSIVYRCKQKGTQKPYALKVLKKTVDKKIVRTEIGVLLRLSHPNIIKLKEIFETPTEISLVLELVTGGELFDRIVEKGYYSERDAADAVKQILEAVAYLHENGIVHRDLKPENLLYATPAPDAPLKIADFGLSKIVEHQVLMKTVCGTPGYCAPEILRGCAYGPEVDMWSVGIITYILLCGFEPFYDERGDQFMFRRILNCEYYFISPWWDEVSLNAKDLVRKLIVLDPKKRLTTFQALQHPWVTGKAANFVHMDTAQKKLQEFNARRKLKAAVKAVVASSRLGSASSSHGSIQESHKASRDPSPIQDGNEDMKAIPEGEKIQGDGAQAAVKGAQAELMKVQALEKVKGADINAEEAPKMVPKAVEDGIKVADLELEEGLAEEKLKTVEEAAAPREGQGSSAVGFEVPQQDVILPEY

340 wild-type kinases [5] = biological target: T5, 340 wild-type kinases (Homo sapiens, UniProt O15530)
T5 construct: purchased Reaction Biology Europe
T5 sequence (O15530 1-556): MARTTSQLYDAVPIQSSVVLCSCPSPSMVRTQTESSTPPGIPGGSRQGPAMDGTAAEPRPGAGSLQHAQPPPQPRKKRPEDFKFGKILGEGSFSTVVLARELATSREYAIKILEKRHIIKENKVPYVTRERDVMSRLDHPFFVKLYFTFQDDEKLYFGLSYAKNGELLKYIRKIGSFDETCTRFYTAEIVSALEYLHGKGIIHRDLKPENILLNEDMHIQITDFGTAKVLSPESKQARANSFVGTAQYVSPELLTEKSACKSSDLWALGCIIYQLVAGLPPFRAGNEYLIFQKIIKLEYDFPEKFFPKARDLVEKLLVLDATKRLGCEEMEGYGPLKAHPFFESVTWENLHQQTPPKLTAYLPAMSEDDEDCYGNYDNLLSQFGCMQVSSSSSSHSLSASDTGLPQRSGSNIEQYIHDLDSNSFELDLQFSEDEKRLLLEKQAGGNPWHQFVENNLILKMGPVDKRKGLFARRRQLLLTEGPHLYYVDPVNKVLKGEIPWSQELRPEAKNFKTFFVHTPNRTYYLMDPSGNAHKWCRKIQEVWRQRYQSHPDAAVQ

340 wild-type kinases [6] = biological target: T6, 340 wild-type kinases (Homo sapiens, UniProt P07947)
T6 construct: purchased Reaction Biology Europe

340 wild-type kinases [7] = biological target: T7, 340 wild-type kinases (Homo sapiens, UniProt Q9Y2K2)
T7 construct: purchased Reaction Biology Europe
T7 sequence (Q9Y2K2 whole entry): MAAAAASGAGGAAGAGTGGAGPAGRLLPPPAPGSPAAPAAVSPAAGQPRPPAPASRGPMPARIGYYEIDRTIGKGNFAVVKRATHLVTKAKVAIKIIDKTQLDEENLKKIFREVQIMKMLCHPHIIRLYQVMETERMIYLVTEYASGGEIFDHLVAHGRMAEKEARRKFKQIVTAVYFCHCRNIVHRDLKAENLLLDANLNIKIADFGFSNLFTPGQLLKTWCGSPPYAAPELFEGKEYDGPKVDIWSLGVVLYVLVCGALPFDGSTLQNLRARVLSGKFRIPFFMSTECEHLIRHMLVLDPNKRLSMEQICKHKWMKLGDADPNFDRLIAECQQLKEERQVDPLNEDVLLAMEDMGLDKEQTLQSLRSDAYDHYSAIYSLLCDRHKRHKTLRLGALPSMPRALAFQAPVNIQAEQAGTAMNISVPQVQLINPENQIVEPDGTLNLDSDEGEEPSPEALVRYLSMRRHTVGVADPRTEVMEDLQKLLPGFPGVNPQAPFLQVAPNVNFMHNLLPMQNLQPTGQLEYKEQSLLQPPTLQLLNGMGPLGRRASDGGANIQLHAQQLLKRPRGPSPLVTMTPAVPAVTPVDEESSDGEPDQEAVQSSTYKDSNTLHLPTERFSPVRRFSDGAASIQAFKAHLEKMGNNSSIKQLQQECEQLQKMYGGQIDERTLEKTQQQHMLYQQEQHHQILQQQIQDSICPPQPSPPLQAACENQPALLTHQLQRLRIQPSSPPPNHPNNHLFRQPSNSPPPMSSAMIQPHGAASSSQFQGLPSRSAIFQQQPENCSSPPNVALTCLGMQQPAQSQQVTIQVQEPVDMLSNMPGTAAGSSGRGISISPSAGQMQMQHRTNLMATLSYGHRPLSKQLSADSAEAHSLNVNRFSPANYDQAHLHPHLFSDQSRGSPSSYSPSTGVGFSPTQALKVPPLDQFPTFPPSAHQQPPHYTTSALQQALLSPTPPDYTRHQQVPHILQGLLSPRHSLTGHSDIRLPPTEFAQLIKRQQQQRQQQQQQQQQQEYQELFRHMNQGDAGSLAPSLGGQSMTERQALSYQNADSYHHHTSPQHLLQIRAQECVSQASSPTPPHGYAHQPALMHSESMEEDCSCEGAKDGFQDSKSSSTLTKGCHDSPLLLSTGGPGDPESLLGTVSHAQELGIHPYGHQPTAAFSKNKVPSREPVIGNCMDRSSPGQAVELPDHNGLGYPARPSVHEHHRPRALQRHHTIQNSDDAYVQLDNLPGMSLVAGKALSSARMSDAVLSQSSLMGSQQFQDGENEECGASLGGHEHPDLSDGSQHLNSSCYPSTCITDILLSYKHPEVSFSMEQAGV

T2 sequence (P00533 25-1210): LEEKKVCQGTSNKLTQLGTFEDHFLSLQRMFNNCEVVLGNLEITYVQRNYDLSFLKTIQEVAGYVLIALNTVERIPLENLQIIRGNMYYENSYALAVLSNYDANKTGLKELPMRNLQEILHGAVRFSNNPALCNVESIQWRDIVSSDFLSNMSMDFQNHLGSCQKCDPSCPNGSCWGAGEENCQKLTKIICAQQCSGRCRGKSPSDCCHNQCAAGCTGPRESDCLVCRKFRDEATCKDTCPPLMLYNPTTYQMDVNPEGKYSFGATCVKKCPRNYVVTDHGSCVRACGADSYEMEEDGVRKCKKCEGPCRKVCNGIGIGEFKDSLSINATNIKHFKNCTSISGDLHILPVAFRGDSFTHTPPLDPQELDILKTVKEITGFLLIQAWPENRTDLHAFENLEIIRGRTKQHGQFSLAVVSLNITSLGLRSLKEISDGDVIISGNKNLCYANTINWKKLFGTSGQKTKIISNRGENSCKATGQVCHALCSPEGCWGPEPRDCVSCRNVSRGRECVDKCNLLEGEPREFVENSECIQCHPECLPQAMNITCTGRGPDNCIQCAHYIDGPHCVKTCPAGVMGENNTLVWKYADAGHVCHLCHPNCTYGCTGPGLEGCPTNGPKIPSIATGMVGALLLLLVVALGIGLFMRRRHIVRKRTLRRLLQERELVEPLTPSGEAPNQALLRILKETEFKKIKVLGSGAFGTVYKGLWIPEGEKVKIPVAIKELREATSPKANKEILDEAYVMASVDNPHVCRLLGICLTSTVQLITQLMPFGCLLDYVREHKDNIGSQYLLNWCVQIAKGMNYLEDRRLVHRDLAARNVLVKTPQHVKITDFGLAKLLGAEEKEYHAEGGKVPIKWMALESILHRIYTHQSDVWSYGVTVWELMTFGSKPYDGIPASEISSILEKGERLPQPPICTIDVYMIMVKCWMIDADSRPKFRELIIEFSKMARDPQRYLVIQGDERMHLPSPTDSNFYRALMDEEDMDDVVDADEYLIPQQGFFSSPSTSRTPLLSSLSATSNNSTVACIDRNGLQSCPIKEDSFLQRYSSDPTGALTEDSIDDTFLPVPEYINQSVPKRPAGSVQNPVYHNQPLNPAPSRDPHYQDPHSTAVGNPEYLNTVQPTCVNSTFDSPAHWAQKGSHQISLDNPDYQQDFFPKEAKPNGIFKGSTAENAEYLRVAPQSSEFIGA
T1 sequence (Q9UK32 whole entry): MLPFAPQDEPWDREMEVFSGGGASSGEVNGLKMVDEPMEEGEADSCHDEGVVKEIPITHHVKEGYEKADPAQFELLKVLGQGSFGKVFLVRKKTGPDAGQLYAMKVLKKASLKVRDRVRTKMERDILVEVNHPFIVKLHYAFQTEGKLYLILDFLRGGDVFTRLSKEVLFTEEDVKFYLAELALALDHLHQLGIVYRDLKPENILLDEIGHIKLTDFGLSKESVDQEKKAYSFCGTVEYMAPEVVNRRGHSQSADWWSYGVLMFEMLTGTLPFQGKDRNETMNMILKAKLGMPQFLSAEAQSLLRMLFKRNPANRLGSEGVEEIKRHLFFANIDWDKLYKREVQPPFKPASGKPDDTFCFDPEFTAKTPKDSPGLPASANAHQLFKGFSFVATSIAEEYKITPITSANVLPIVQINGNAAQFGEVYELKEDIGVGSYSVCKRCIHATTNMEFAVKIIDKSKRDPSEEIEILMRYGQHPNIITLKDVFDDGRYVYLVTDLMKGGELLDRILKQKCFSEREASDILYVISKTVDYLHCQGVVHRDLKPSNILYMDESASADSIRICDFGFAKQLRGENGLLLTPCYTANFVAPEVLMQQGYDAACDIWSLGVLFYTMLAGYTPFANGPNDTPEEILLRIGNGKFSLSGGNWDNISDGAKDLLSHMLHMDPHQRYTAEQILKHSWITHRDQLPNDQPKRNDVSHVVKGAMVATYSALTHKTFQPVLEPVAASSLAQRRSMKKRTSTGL
T6 sequence (P07947 whole entry): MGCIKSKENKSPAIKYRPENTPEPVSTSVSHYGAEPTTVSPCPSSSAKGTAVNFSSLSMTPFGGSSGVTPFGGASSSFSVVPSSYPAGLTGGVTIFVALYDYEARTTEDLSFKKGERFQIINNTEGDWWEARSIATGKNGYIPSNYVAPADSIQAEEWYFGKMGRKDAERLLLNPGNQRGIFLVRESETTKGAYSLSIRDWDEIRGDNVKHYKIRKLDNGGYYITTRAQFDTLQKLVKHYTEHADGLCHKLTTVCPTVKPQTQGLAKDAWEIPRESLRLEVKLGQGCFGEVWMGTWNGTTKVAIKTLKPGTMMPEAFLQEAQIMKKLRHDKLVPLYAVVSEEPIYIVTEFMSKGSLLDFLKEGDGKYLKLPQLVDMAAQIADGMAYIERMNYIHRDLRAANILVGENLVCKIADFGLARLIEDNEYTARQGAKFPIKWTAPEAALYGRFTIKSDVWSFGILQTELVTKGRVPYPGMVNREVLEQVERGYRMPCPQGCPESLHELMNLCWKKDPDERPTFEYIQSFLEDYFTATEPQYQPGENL

**Q.** Which results are given for `CNC(=O)c1ccc2c(c1)C(=O)c1ccc(Nc3ccc(F)c(NC(=O)C4CC4)c3)cc1CC2` [Compound 2015]?
**A.** remaining activity at 0.2 µM (340 wild-type kinases [1]; 0.2 µM 2015, read-out: RPS6KA6 residual activity): 89.7%; remaining activity at 1 µM (340 wild-type kinases [1]; 1 µM 2015, read-out: RPS6KA6 residual activity): 81.3%; remaining activity at 0.2 µM (340 wild-type kinases [1]; RPS6KA6, 0.2 µM, read-out: residual activity): 89.7%; remaining activity at 1 µM (340 wild-type kinases [1]; RPS6KA6, 1 µM, read-out: residual activity): 81.3%; remaining activity at 0.2 µM (340 wild-type kinases [2]; 0.2 µM 2015, read-out: EGFR residual activity): 108%; remaining activity at 1 µM (340 wild-type kinases [2]; 1 µM 2015, read-out: EGFR residual activity): 96.6%; remaining activity at 0.2 µM (340 wild-type kinases [2]; EGFR, 0.2 µM, read-out: residual activity): 108%; remaining activity at 1 µM (340 wild-type kinases [2]; EGFR, 1 µM, read-out: residual activity): 96.6%; remaining activity at 0.2 µM (340 wild-type kinases [3]; 0.2 µM 2015, read-out: ARK5 residual activity): 96.7%; remaining activity at 1 µM (340 wild-type kinases [3]; 1 µM 2015, read-out: ARK5 residual activity): 98.5%; remaining activity at 0.2 µM (340 wild-type kinases [3]; ARK5, 0.2 µM, read-out: residual activity): 96.7%; remaining activity at 1 µM (340 wild-type kinases [3]; ARK5, 1 µM, read-out: residual activity): 98.5%; remaining activity at 0.2 µM (340 wild-type kinases [4]; 0.2 µM 2015, read-out: CAMK4 residual activity): 92.7%; remaining activity at 1 µM (340 wild-type kinases [4]; 1 µM 2015, read-out: CAMK4 residual activity): 94.1%; remaining activity at 0.2 µM (340 wild-type kinases [4]; CAMK4, 0.2 µM, read-out: residual activity): 92.7%; remaining activity at 1 µM (340 wild-type kinases [4]; CAMK4, 1 µM, read-out: residual activity): 94.2%; remaining activity at 0.2 µM (340 wild-type kinases [5]; 0.2 µM 2015, read-out: PDK1 residual activity): 107%; remaining activity at 1 µM (340 wild-type kinases [5]; 1 µM 2015, read-out: PDK1 residual activity): 93.7%; remaining activity at 0.2 µM (340 wild-type kinases [5]; PDK1, 0.2 µM, read-out: residual activity): 107%; remaining activity at 1 µM (340 wild-type kinases [5]; PDK1, 1 µM, read-out: residual activity): 93.7%; remaining activity at 0.2 µM (340 wild-type kinases [6]; 0.2 µM 2015, read-out: YES residual activity): 102%; remaining activity at 1 µM (340 wild-type kinases [6]; 1 µM 2015, read-out: YES residual activity): 105%; remaining activity at 0.2 µM (340 wild-type kinases [6]; YES, 0.2 µM, read-out: residual activity): 102%; remaining activity at 1 µM (340 wild-type kinases [6]; YES, 1 µM, read-out: residual activity): 105%; remaining activity at 0.2 µM (340 wild-type kinases [7]; 0.2 µM 2015, read-out: SIK3 residual activity): 101%; remaining activity at 1 µM (340 wild-type kinases [7]; 1 µM 2015, read-out: SIK3 residual activity): 95.7%; remaining activity at 0.2 µM (340 wild-type kinases [7]; SIK3, 0.2 µM, read-out: residual activity): 101%; remaining activity at 1 µM (340 wild-type kinases [7]; SIK3, 1 µM, read-out: residual activity): 95.7%
